Experimental data taken from patent publication US10633417B2 (priority 2013, dated 2020).

Tests used:
Sprague-Dawley rats [1] = details: rat, in vivo
Sprague-Dawley rats [2] = details: rat, in vivo; remark: listed apart in the source
[3] = molecular target: human α9 (Ile56 to Thr) α10 nAChR (Homo sapiens, UniProt Q9GZZ6+Q9UGM1, I86T); type: cell-based
Sprague-Dawley rats [4] = details: rat, in vivo; remark: listed apart in the source
Sprague-Dawley rats [5] = details: rat, in vivo; remark: listed apart in the source
rat α9α10 nAChR = rat α9α10 nAChR (Rattus norvegicus, UniProt P43144+Q9JLB5); details: cited from earlier work
Chain of rat α9α10 nAChR (P43144 26-479 limits assumed): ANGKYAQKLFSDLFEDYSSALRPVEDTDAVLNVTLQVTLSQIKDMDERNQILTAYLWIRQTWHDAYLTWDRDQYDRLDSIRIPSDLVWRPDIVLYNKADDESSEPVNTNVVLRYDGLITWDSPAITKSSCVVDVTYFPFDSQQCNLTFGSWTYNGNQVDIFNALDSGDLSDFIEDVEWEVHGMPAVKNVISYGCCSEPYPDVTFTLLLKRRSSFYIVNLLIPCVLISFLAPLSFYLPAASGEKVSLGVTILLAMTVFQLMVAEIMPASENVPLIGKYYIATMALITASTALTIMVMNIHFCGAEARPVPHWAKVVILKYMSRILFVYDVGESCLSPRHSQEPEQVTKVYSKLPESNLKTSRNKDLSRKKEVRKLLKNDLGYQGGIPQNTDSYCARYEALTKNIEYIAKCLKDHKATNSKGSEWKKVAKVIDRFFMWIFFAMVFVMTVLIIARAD
Chain of rat α9α10 nAChR (Q9JLB5 25-447 limits assumed): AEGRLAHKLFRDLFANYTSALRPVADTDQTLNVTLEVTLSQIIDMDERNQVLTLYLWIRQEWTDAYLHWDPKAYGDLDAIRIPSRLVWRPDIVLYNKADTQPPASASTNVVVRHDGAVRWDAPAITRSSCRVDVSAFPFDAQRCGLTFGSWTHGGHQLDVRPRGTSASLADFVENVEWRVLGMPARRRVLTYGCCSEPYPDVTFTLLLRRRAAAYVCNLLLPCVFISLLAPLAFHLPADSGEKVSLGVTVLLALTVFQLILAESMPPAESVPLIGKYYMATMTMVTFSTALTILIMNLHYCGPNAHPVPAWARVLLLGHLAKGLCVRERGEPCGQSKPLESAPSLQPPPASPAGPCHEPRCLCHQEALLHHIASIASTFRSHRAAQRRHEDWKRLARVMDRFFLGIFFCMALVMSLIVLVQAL

Sprague Dawley rats [6] = details: rat, in vivo
Sprague Dawley rats [7] = details: rat, in vivo; remark: listed apart in the source
[8] = molecular target: rat α9 (Thr56 to Ile) α10 nAChR (Rattus norvegicus, UniProt P43144+Q9JLB5, T86I); type: cell-based
Chain of rat α9 (Thr56 to Ile) α10 nAChR (P43144 26-479 T86I limits assumed, stated change not applied): as the sequence (P43144 26-479 limits assumed) above, with T61I counted along it
Chain of rat α9 (Thr56 to Ile) α10 nAChR (Q9JLB5 25-447 limits assumed, stated change not applied): as the sequence (Q9JLB5 25-447 limits assumed) above

Chain of human α9 (Ile56 to Thr) α10 nAChR (Q9UGM1 26-479 I86T limits assumed, stated change not applied): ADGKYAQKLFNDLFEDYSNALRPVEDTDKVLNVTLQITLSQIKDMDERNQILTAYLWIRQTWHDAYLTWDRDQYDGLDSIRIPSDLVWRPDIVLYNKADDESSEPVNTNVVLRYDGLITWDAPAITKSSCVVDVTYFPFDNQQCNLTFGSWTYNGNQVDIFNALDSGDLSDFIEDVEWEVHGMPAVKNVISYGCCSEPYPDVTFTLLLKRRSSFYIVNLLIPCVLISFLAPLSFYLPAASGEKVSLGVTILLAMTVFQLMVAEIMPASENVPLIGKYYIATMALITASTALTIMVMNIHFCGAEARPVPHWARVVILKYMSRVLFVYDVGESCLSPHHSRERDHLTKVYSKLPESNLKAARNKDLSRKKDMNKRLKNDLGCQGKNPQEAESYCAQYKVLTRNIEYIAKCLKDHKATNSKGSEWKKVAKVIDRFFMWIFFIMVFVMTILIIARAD
Chain of human α9 (Ile56 to Thr) α10 nAChR (Q9GZZ6 25-450 limits assumed, stated change not applied): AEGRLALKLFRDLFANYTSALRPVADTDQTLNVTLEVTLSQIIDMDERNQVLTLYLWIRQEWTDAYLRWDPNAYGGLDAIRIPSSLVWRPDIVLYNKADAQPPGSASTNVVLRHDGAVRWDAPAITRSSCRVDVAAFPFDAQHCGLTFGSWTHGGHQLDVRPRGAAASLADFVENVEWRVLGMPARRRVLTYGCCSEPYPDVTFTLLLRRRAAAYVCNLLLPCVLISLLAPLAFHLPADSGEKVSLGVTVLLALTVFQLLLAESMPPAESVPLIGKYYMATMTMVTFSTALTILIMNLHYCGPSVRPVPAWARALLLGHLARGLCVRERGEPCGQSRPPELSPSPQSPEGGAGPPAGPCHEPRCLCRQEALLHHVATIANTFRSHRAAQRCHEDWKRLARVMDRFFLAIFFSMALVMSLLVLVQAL

## GCCSDPRCRYRCR [RgIA]
Sprague-Dawley rats [1]
  prevention of OXA-induced cold allodynia, day 7: able to prevent OXA-induced cold allodynia
  prevention of OXA-induced cold allodynia, day 14 and 21: able to prevent OXA-induced cold allodynia
Sprague-Dawley rats [2]
  analgesic effect in OXA chemotherapy induced neuropathic pain: significant analgesic effects on days 14 and 21
[3]
  RgIA potency on human receptor with α9 Ile56 to Thr: increase in RgIA potency on the human receptor to levels found in rat
  increase in RgIA potency on human receptor with α9 Ile56 to Thr: 2 log
Sprague-Dawley rats [4]
  efficacy on mechanical hyperalgesia 24 h after injection: still significant
  pain threshold (mechanical hyperalgesia) 30 min after injection: acutely increased pain threshold
  prevention of OXA-induced mechanical hyperalgesia: significantly prevented
Sprague-Dawley rats [5]
  activity on mechanical allodynia (von Frey), days 14 and 21: active
  analgesic effect (von Frey), day 7, 24 h later: not observed
Rat α9α10 nAChR
  potency on the human versus rat α9α10 nAChR: ~170 fold
Sprague Dawley rats [6]
  mechanical allodynia in the FTTI model, acute treatment: effectively reduces
Sprague Dawley rats [7]
  burn-induced thermal hyperalgesia (Hargraves method): significantly reduced
  thermal hyperalgesia in the FTTI model, acute treatment: effectively reduces
[8]
  RgIA potency on rat receptor with Thr56 to Ile in α9: reduction in RgIA potency on the rat receptor to levels found with the human receptor

## Vc1.1
Rat α9α10 nAChR
  potency on the human versus rat α9α10 nAChR: significantly less potent
